System: 966289-007-R4-J1-PDC complex spheroid viability
Test: Anticancer human tumor 966289-007-R4-J1-PDC patient-derived pancreatic adenocarcinoma cell line growth inhibition [GQUAD]
Conditions: for IC50: curve of first compound; for viability, T/C: stronger effect = lower value; active = viability on the fitted dose curve at most 10% of control; inactive = the rest
Excerpt: DNA G-quadruplex Stabilizer Agents in Combinations in Complex Spheroids
A high-throughput screen of multi-cell type tumor spheroids was designed to identify active combinations of DNA G-quadruplex stabilizer agents and targeted small molecules. Complex spheroids include a stromal component modeled by human endothelial cells (HUVEC) and fibroblasts modeled by human mesenchymal stem cells (MSCs). The concentration ranges selected for each drug and investigational agent were based upon clinically achievable concentrations if the clinical Cmax of the agent was known.
Compounds. The drugs and investigational agents: pidnarulex (CX-5461; NSC782164), APTO-253 (NSC789042), BRACO-19 (NSC847499), peposertib (NSC802822), ceralasertib (NSC780249), elimusertib (NSC800525), camonsertib (NSC841442), AZD-1390 (NSC803789), olaparib (NSC753686), talazoparib (NSC767125), ART-558 (NSC835418), sotorasib (NSC818433), MRTX-1133 (NSC836407), SN-38 (NSC673596), topotecan (NSC609699), etoposide (NSC141540), doxorubicin (NSC123127), gemcitabine (NSC613327), 5-fluorouracil (NSC19893), paclitaxel (NSC125973), vemurafenib (NSC761431), panobinostat (NSC761190), R-306465 (JNJ-16241199; NSC773264), adavosertib (NSC754352), TP-3654 (NSC805149), carboplatin (NSC241240), KSQ-4279 (NSC840948), and staurosporine (NSC755774) were obtained from the National Cancer Institute (NCI) Developmental Therapeutics Program Chemical Repository (34). The FDA-approved anticancer drug set is available from the NCI Developmental Therapeutics Program. […] The stock solutions were prepared in dimethyl sulfoxide (DMSO, Sigma-Aldrich, St. Louis, MO, cat. D2650) at 800-fold the tested concentration and stored at -70 degrees C prior to their use. All drugs and investigational agents were tested over a range starting from a high concentration at or near the clinical Cmax and decreasing in half-log increments. If the clinical Cmax for an agent had not been determined, the highest concentration tested was 10 microM.
2.3 Cell Culture. All cells were maintained in an incubator at 37 degrees C and 5% CO2 with 95% humidity. The PDC lines were cultured according to standard operating procedures established by the NCI PDMR. All PDCs were thawed and cultured in Matrigel-coated flasks prepared with a working solution of 1X Ham's F-12 nutrient mix, without supplementation (Invitrogen, cat. 11765054), 100 U/mL penicillin-streptomycin (Invitrogen, cat. 15140122), and 2.5% Matrigel (Corning Inc., cat. 354248) for the first three passages. The 857933-349-R-J2-PDC line was cultured in 6C/Colon 1B media, which includes advanced DMEM/F-12 (Thermo Fisher Scientific, cat. 12634028), 10 mM HEPES (Thermo Fisher Scientific, cat. 15630080), 1X GlutaMAX supplement (Thermo Fisher Scientific, cat. 35050061), 0.1 mg/mL primocin (InvivoGen, cat. ant-pm-2), 10% defined fetal bovine serum, heat inactivated (HyClone Laboratories Inc., cat. SH30070.03HI), 50% L-WRN conditioned media (ATCC, cat. CRL-3276), 1.25 mM N-Acetyl-L-cysteine (Sigma-Aldrich, cat. A9165), 10 mM nicotinamide (Sigma-Aldrich, cat. N0636), 1X B-27 supplement (Thermo Fisher Scientific, cat. 17504044), 1X N-2 supplement (Thermo Fisher Scientific, cat. 17502048), 10 microM Y-27632 dihydrochloride (Tocris Bioscience, cat. 1254), and 50 ng/mL human EGF recombinant protein (Thermo Fisher Scientific, cat. PHG0311). The 485176-168-R4-J1-PDC line was cultured in Panc media, which includes all 6C/Colon 1B media components plus 100 ng/mL human FGF-10 (Thermo Fisher Scientific, cat. 100-26), 500 nM SB-431542 (Selleckchem, cat. S1067), and gastrin (Tocris, cat. 3006).
[…]

[1] = second compound 0.0316 µM, first compound 0.0316 µM
[2] = second compound 0.0316 µM, first compound 0.1 µM
[3] = second compound 0.0316 µM, first compound 0.316 µM
[4] = second compound 0.0316 µM, first compound 1 µM
[5] = second compound 0.0316 µM, first compound 3.16 µM
[6] = second compound 0.0316 µM, first compound 10 µM
[7] = second compound 0.1 µM, first compound 0.0316 µM
[8] = second compound 0.1 µM, first compound 0.1 µM
[9] = second compound 0.1 µM, first compound 0.316 µM
[10] = second compound 0.1 µM, first compound 1 µM
[11] = second compound 0.1 µM, first compound 3.16 µM
[12] = second compound 0.1 µM, first compound 10 µM
[13] = second compound 0.316 µM, first compound 0.0316 µM
[14] = second compound 0.316 µM, first compound 0.1 µM
[15] = second compound 0.316 µM, first compound 0.316 µM
[16] = second compound 0.316 µM, first compound 1 µM
[17] = second compound 0.316 µM, first compound 3.16 µM
[18] = second compound 0.316 µM, first compound 10 µM
[19] = second compound 1 µM, first compound 0.0316 µM
[20] = second compound 1 µM, first compound 0.1 µM
[21] = second compound 1 µM, first compound 0.316 µM
[22] = second compound 1 µM, first compound 1 µM
[23] = second compound 1 µM, first compound 3.16 µM
[24] = second compound 1 µM, first compound 10 µM
[25] = second compound 3.16 µM, first compound 0.0316 µM
[26] = second compound 3.16 µM, first compound 0.1 µM
[27] = second compound 3.16 µM, first compound 0.316 µM
[28] = second compound 3.16 µM, first compound 1 µM
[29] = second compound 3.16 µM, first compound 3.16 µM
[30] = second compound 3.16 µM, first compound 10 µM
[31] = second compound 10 µM, first compound 0.0316 µM
[32] = second compound 10 µM, first compound 0.1 µM
[33] = second compound 10 µM, first compound 0.316 µM
[34] = second compound 10 µM, first compound 1 µM
[35] = second compound 10 µM, first compound 3.16 µM
[36] = second compound 10 µM, first compound 10 µM
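Also: spheroids exposed to the agents for seven days before readout.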
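For viability, T/C in this document: percent viability relative to DMSO vehicle control wells taken as 100%.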

Nc1ccn(C2OC(CO)C(O)C2(F)F)c(=O)n1 (centres undefined) + CN(C)c1ccc(Nc2c3ccc(NC(=O)CCN4CCCC4)cc3nc3cc(NC(=O)CCN4CCCC4)ccc23)cc1
inactive: viability, T/C [1] 14% | viability, T/C [7] 10.8%
active: viability, T/C [2] 1.18% | viability, T/C [3] 0.88% | viability, T/C [4] 0.96% | viability, T/C [5] 0.85% | viability, T/C [6] 0.89% | viability, T/C [8] 2.18% | viability, T/C [9] 0.86% | viability, T/C [10] 1.06% | viability, T/C [11] 0.89% | viability, T/C [12] 1.03% | viability, T/C [13] 8.99% | viability, T/C [14] 1.42% | viability, T/C [15] 0.99% | viability, T/C [16] 0.97% | viability, T/C [17] 0.84% | viability, T/C [18] 0.93% | viability, T/C [19] 9.78% | viability, T/C [20] 1.73% | viability, T/C [21] 1.22% | viability, T/C [22] 1.01% | viability, T/C [23] 0.89% | viability, T/C [24] 0.91% | viability, T/C [25] 8.33% | viability, T/C [26] 1.17% | viability, T/C [27] 1.01% | viability, T/C [28] 0.9% | viability, T/C [29] 1.5% | viability, T/C [30] 0.99% | viability, T/C [31] 5.04% | viability, T/C [32] 1.02% | viability, T/C [33] 1.04% | viability, T/C [34] 0.83% | viability, T/C [35] 0.85% | viability, T/C [36] 0.85%
< 31.6 nM: IC50 (second compound 0.0316 µM) | IC50 (second compound 0.1 µM) | IC50 (second compound 0.316 µM) | IC50 (second compound 1 µM) | IC50 (second compound 3.16 µM) | IC50 (second compound 10 µM)

O=c1[nH]cc(F)c(=O)[nH]1 + CN(C)c1ccc(Nc2c3ccc(NC(=O)CCN4CCCC4)cc3nc3cc(NC(=O)CCN4CCCC4)ccc23)cc1
209 nM: IC50 (second compound 0.1 µM)
195 nM: IC50 (second compound 10 µM)
205 nM: IC50 (second compound 0.0316 µM)
inactive: viability, T/C [1] 104% | viability, T/C [2] 103% | viability, T/C [3] 18.4% | viability, T/C [7] 103% | viability, T/C [8] 113% | viability, T/C [9] 17.7% | viability, T/C [13] 105% | viability, T/C [14] 109% | viability, T/C [15] 17.5% | viability, T/C [19] 103% | viability, T/C [20] 107% | viability, T/C [21] 17.5% | viability, T/C [25] 101% | viability, T/C [26] 106% | viability, T/C [27] 22.2% | viability, T/C [31] 93.8% | viability, T/C [32] 103% | viability, T/C [33] 14.6%
208 nM: IC50 (second compound 0.316 µM)
206 nM: IC50 (second compound 1 µM)
active: viability, T/C [4] 6.28% | viability, T/C [5] 5.63% | viability, T/C [6] 6.35% | viability, T/C [10] 7.05% | viability, T/C [11] 5.04% | viability, T/C [12] 6.55% | viability, T/C [16] 7.23% | viability, T/C [17] 5.77% | viability, T/C [18] 6.78% | viability, T/C [22] 6.91% | viability, T/C [23] 5.6% | viability, T/C [24] 5.8% | viability, T/C [28] 8.51% | viability, T/C [29] 5.41% | viability, T/C [30] 5.54% | viability, T/C [34] 4.55% | viability, T/C [35] 3.52% | viability, T/C [36] 3.2%
213 nM: IC50 (second compound 3.16 µM)
